# Results published in patent publication US10844057B2, “Process for preparing JAK inhibitors and intermediates thereof” (priority 2018, dated 2020).
# How the values were obtained:
# [1] = target: JAK1 (Homo sapiens (Human), UniProt P23458); assay: Biochemical JAK kinase assay (LanthaScreen), JAK1; settings: converted from pIC50 using Cheng-Prusoff; ATP 25 μM
# Procedure: (§1) Assay 1: Biochemical JAK Kinase Assays
# (§2) A panel of four LanthaScreen JAK biochemical assays (JAK1, 2, 3 and Tyk2) were carried in a common kinase reaction buffer (50 mM HEPES, pH 7.5, 0.01% Brij-35, 10 mM MgCl2, and 1 mM EGTA). Recombinant GST-tagged JAK enzymes and a GFP-tagged STAT1 peptide substrate were obtained from Life Technologies.
# (§3) Serially diluted compounds were pre-incubated with each of the four JAK enzymes and the substrate in white 384-well microplates (Corning) at ambient temperature for 1 h. ATP was subsequently added to initiate the kinase reactions in 10 μL total volume, with 1% DMSO. […] Kinase reactions were allowed to proceed for 1 hour at ambient temperature before a 10 μL preparation of EDTA (10 mM final concentration) and Tb-anti-pSTAT1 (pTyr701) antibody (Life Technologies, 2 nM final concentration) in TR-FRET dilution buffer (Life Technologies) was added. The plates were allowed to incubate at ambient temperature for 1 h before being read on the EnVision reader (Perkin Elmer). Emission ratio signals (520 nm/495 nm) were recorded and utilized to calculate the percent inhibition values based on DMSO and background controls.
# (§4) For dose-response analysis, percent inhibition data were plotted vs. compound concentrations, and IC50 values were determined from a 4-parameter robust fit model with the Prism software (GraphPad Software). Results were expressed as pIC50 (negative logarithm of IC50) and subsequently converted to pKi (negative logarithm of dissociation constant, Ki) using the Cheng-Prusoff equation.
# [2] = target: JAK3 (Homo sapiens (Human), UniProt P52333); assay: Biochemical JAK kinase assay (LanthaScreen), JAK3; settings: converted from pIC50 using Cheng-Prusoff; ATP 1.6 μM
# Procedure: as §1, §2, §3, §4
# [3] = system: IL-2 stimulated STAT5 phosphorylation in Tall-1 human T cell line; assay: Inhibition of IL-2 stimulated pSTAT5 in Tall-1 T cells; format: cell-based; settings: IL-2 300 ng/mL, pSTAT5 AlphaLisa, Tall-1 cells, read-out: Tall-1 pIC50 (converted)
# Procedure: Assay 2: Inhibition of IL-2 Stimulated pSTAT5 in Tall-1 T Cells
# The potency of test compounds for inhibition of interleukin-2 (IL-2) stimulated STAT5 phosphorylation was measured in the Tall-1 human T cell line (DSMZ) using AlphaLisa.
# Phosphorylated STAT5 was measured via the AlphaLISA SureFire Ultra pSTAT5 (Tyr694/699) kit (PerkinElmer).
# Compounds were serially diluted in DMSO and dispensed acoustically to empty wells. Assay media (phenol red-free DMEM (Life Technologies) supplemented with 10% FBS (ATCC)) was dispensed (4 μL/well) and plates shaken at 900 rpm for 10 mins. Cells were seeded at 45,000 cells/well in assay media (4 μL/well), and incubated at 37° C., 5% CO2 for 1 hour, followed by the addition of IL-2 (R&D Systems; final concentration 300 ng/mL) in pre-warmed assay media (4 μL) for 30 minutes. […] The lysate was shaken at 900 rpm for 10 minutes at room temperature (RT). Phosphorylated STAT5 was measured via the pSTAT5 AlphaLisa kit (PerkinElmer). Freshly prepared acceptor bead mixture was dispensed onto lysate (5 μL) under green filtered <100 lux light. Plates were shaken at 900 rpm for 2 mins, briefly spun down, and incubated for 2 hrs at RT in the dark. Donor beads were dispensed (5 μL) under green filtered <100 lux light. Plates were shaken at 900 rpm for 2 minutes, briefly spun down, and incubated overnight at RT in the dark. Luminescence was measured with excitation at 689 nm and emission at 570 nm using an EnVision plate reader (PerkinElmer) under green filtered <100 lux light.
# To determine the inhibitory potency of test compounds in response to IL-2, the average emission intensity of beads bound to pSTAT5 was measured in a human T cell line. IC50 values were determined from analysis of the inhibition curves of signal intensity versus compound concentration. Data are expressed as pIC50 (negative decadic logarithm IC50) values (mean±standard deviation).
# Chain of JAK1 (P23458 whole entry): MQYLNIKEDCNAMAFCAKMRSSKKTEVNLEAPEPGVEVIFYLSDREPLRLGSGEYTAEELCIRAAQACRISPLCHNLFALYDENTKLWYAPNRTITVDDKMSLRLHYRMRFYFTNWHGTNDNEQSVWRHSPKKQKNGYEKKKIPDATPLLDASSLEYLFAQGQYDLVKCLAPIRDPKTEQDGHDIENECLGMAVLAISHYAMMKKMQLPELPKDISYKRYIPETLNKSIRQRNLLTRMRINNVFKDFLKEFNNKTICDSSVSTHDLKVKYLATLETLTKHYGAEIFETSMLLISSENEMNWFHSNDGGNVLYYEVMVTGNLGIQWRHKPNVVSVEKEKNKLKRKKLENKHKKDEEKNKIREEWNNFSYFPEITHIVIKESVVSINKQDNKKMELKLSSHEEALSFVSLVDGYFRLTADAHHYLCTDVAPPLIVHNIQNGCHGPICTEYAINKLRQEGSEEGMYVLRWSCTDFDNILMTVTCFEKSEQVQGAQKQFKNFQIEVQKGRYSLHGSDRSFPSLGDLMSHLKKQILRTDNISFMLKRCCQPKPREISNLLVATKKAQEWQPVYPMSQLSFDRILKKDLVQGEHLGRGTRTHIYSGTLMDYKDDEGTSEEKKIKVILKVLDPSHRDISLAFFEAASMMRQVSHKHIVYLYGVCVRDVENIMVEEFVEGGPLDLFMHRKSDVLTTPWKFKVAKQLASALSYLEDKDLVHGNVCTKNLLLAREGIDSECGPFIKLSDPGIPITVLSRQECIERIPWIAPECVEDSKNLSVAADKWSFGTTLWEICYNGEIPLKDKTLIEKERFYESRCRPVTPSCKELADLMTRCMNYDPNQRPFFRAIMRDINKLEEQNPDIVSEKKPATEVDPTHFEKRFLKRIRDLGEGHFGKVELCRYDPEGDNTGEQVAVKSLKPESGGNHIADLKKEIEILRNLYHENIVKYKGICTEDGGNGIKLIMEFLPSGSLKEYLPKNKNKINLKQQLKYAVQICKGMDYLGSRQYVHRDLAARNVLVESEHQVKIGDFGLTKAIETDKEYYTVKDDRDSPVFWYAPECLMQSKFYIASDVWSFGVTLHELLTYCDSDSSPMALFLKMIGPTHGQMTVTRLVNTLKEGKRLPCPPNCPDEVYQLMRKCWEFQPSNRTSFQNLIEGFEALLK
# Chain of JAK3 (P52333 whole entry): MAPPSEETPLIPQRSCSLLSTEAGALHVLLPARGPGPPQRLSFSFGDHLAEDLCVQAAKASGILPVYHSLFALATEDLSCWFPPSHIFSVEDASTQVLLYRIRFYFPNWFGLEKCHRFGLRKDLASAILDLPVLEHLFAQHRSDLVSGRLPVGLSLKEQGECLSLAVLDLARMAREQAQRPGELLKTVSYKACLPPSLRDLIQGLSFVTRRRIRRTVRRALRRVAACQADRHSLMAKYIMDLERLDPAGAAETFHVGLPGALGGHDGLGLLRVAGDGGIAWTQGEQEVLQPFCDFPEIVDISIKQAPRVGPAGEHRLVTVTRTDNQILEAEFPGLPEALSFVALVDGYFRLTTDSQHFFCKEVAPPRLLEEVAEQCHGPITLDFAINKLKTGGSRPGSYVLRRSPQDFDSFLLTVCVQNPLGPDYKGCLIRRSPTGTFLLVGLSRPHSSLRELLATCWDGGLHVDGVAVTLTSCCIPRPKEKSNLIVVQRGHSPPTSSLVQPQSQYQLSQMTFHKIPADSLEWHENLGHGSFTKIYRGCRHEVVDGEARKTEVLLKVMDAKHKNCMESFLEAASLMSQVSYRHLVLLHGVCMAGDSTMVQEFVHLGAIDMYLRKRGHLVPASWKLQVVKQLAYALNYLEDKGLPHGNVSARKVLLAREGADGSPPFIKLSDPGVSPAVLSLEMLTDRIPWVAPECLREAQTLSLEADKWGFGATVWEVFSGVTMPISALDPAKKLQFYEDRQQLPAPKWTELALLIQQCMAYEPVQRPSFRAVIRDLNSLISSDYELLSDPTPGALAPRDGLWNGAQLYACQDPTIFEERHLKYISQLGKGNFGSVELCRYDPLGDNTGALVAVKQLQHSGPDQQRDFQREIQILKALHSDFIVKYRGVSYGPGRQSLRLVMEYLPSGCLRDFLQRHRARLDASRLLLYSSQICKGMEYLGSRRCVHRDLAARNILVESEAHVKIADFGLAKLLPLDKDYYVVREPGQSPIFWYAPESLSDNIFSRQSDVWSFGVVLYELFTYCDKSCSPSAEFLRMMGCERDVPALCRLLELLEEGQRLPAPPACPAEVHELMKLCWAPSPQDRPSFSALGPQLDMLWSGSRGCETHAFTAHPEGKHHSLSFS
smiles,measurement,setting,value
"CCc1cc(O)c(F)cc1-c1ccc2c(-c3nc4c([nH]3)CN(C(C)C)[C@H](C(=O)N3CC(N(C)C)C3)C4)n[nH]c2c1 [Example 8, (S)-(3-(dimethylamino)azetidin-1-yl)(2-(6-(2-ethyl-5-fluoro-4-hydroxyphenyl)-1H-indazol-3-yl)-5-isopropyl-4,5,6,7-tetrahydro-3H-imidazo[4,5-c]pyridin-6-yl)methanone]",JAK1 pKi,[1],10.4
same,JAK3 pKi,[2],10.1
same,IC50,[3],1.58 nM
